# In article PMC9506420, “Biological Evaluation of 3-Azaspiro[Bicyclo[3.1.0]Hexane-2,5′-Pyrimidines] as Potential Antitumor Agents” (International Journal of Molecular Sciences, 2022):
# “And” between values parts separate entries of the source, which are not always exact repeats. Equal entries are not always repeated. Where two headings read alike, the source gives them in different places.
# Experiments:
# HeLa cells = test: Annexin V-FITC/DAPI cell death analysis, HeLa; format: cell-based, human; conditions: 10 μg/mL, 72 h; for Necrotic Cells, %: control 0.5 ± 0.3; for Early Apoptotic Cells, %: control 4.5 ± 0.7; for Live Cells, %: control 89.0 ± 0.7; for Late Apoptotic Cells, %: control 5.9 ± 0.4
# Method: The results of cell death detection after the exposure of the HeLa and CT26 cell lines to spiro-fused cycloadducts 4c–i at a dose of 10 μg/mL for 72 h, using Annexin V-FITC/DAPI staining, are shown in Figure 6 and Figure 7, respectively.
# Cells were seeded in 24-well plates, 5 × 10^4 cells per well. After 24 h incubation, cells were treated with compounds 4c–i for 72 h. Then, cells were washed, harvested by trypsinisation, stained with Annexin V-FITC ([…]) and DAPI (Thermo Fisher Scientific, Waltham, MA, USA), in accordance with the protocol of the manufacturer, and analyzed by flow cytometry. The proapoptotic effect of azaspiro[bicyclo[3.1.0]hexane-2,5′-pyrimidines] 4c–i was evaluated by an Annexin V-FITC/DAPI (AV/DAPI) dual-staining assay to examine the occurrence of phosphatidylserine externalization, which facilitated the detection of live cells (lower-left quadrant; AV−/DAPI−), early apoptotic cells (upper-left quadrant; AV+/DAPI−), late apoptotic cells (upper-right quadrant; AV+/DAPI+), and necrotic cells (lower-right quadrant; AV−/DAPI+).
# [1] = tested on: human erythroleukemia (K562) cell line; test: MTS antiproliferative (cytotoxicity) assay, K562; format: cell-based; conditions: for IC50: Homo sapiens; for SI (selectivity index), K562: Vero as reference cell line
# Method: The cytotoxicity of synthesized 3-azaspiro[bicyclo[3.1.0]hexane-2,5′-pyrimidines] 4 against human erythroleukemia (K562), cervical carcinoma (HeLa), and T lymphocyte (Jurkat), as well as mouse colon carcinoma (CT26) and African green monkey kidney epithelial (Vero) cell lines as reference, was evaluated in vitro by the standard MTS assay for 24 and 72 h.
# All the cell lines (human cervical carcinoma (HeLa), erythroleukemia (K-562), and T lymphocyte (Jurkat) as well as mouse colon carcinoma (CT26) and African green monkey kidney epithelial (Vero)) were obtained from the cell repository “Vertebrate cell culture collection” (supported by the Ministry of Science and Higher Education of the Russian Federation, agreement №075-15-2021-683, Institute of Cytology, Russian Academy of Sciences, Saint Petersburg, Russia). HeLa, Jurkat, and Vero cells were cultured in DMEM (HyClone, South Logan, UT, USA) supplemented with 10% (v/v) fetal bovine serum (Hyclone, GE Healthcare Life Sciences, Logan, UT, USA), and gentamicin (Sigma-Aldrich, St. Louis, MO, USA) at 37 °C in a humidified atmosphere with 5% CO2. K-562 and CT26 cells were grown at RPMI medium (Hyclone, GE Healthcare Life Sciences, Logan, UT, USA), with the same supplements and conditions.
# To evaluate the in vitro toxicity of compounds synthesized, cells were seeded into 96-well plates at a density of 5 × 10^3 cells per well. On the next day, tested compounds were added to the wells at concentrations ranging from […], followed by incubation for 1 and 3 days. Cell proliferation was determined by adding 20 μL of MTS reagent (BioVision, Milpitas, CA, USA) stock solution per well. Each plate was incubated for 2 h at 37 °C in a humidified, 5% CO2 atmosphere. The plates were then read at 495 nm using plate spectrophotometer (Multiskan GO, Thermo Fisher Scientific, Waltham, MA, USA). All samples were measured in triplicates.
# CT26 tumor = test: In vivo evaluation in CT26 tumor-bearing Balb/C mice; conditions: for death of experimental animals by the end of the observation period: n = 7 per group, single i.p. 300 μL of 3 μM suspension, 10 days, control group one animal; for autopsy finding in the abdominal cavity (agglomerates of injected material): autopsy at end of experiment, diameter of up to 1 mm
# Method: In vivo studies were performed using CT26 tumor-bearing Balb/C mice. After the average tumor volume reached approximately 270 mm^3, the mice were injected intraperitoneally with 300 μL of 3 μM suspension of compounds 4d, 4e, 4f, and 4i in 10% aq. DMSO solution. Mice in the control group were injected with 300 μL of 10% aq. DMSO solution. Observation of the animals continued for 10 days, with the measurement of tumor sizes two times a week.
# All animals were bred and maintained in specific pathogen-free facilities in accordance with the Rus-LASA and FELASA guidelines. This study complied with all relevant ethical regulations for animal testing and research and received ethical approval from the Almazov National Medical Research Centre (protocol No. 21-02, dated 26 March 2021). Animal experiments were carried out in accordance with the principles of humane treatment of animals, regulated by requirements of Council of Europe 2006; European Convention for the Protection of Vertebrate Animals Used for Experimental and other Scientific Purposes (ETS No. 123); the European Parliament and the Council of the European Union 2010; Directive 2010/63/EU of the European Parliament and of the Council of 22 September 2010 on the Protection of Animals Used for Scientific Purposes; and FELASA guidelines. Male, 20–22 g, SPF Balb/C mice (Pushchino, Moscow region, Russian Federation) were used throughout. Animals were maintained at 22 ± 2 °C and relative humidity 50 ± 10% with 12 h light/dark cycle. All mice received water and food ad libitum. Animals were checked daily by the veterinarian, and their state of health was monitored continuously. Animal body weight was recorded every three days (GX-600 Precision Balance, A&D Weighing, San Jose, CA, USA).
# The greatest transverse diameter (width) and the greatest longitudinal diameter (length) of a tumor were determined with a Vernier mechanical caliper. The tumor volume (V) was calculated using the following formula: V = length × width 2/2000 [50]. Mice were inoculated subcutaneously in the right flank, with 2 × 10^6 CT26 cells per mouse in PBS (Corning, Glendale, AZ, USA). Ten days later, when the average tumor volume reached […], the mice were randomized into groups (n = 7 per group). An amount of 300 μL of 3 μM suspension of compounds 4d, 4e, 4f, and 4i in 10% aq. DMSO solution was injected intraperitoneally at once. The control group was injected with 10% aq. DMSO solution only. The tumor volumes were monitored as described above, along with body weight. Mice were euthanized when the subcutaneous tumor reached a volume of […].
# [2] = K562, 24 h, read-out: IC50, K562, 24 h
# [3] = K562, 72 h, read-out: IC50, K562, 72 h
SMILES,rate of cell death in HeLa vs control (HeLa cells),"Necrotic Cells, % (HeLa cells)","Early Apoptotic Cells, % (HeLa cells)","Live Cells, % (HeLa cells)","IC50 [1, 2]","IC50 [1, 3]","SI (selectivity index), K562 [1]",death of experimental animals by the end of the observation period (CT26 tumor),autopsy finding in the abdominal cavity (agglomerates of injected material) (CT26 tumor; single i.p. injection),"Late Apoptotic Cells, % (HeLa cells)","macroscopic signs of acute toxicity at autopsy (CT26 tumor; single i.p. injection, autopsy of abdominal organs)"
CC[C@@H]1NC2(C(=O)NC(=O)NC2=O)[C@]2(c3ccccc3)[C@@H](c3ccccc3)[C@]12c1ccccc1 [Compound 4c],not different from the control,2.2 ± 0.5 %,5.6 ± 1.3%,81.0 ± 4.4 %,12 ± 2 µM,5 ± 2 µM,3.2,–,–,–,–
CCC[C@@H]1NC2(C(=O)NC(=O)NC2=O)[C@]2(c3ccccc3)[C@@H](c3ccccc3)[C@]12c1ccccc1 [Compound 4d],–,3.6 ± 1.8 %,11.6 ± 0.2 %,46.8% and 46.8 ± 18.4 %,21 ± 4 µM,9 ± 2 µM,1.8,No deaths,"persistent, rounded, dense agglomerates of white or yellowish-white foreign material",38.1 ± 16.8 %,–
CCCC[C@@H]1NC2(C(=O)NC(=O)NC2=O)[C@]2(c3ccccc3)[C@@H](c3ccccc3)[C@]12c1ccccc1 [Compound 4e],–,5.6 ± 2.6 %,18.1 ± 3.1 %,15.0% and 15.0 ± 2.7 %,17 ± 2 µM,4 ± 2 µM,2.5,two,"persistent, rounded, dense agglomerates of white or yellowish-white foreign material",61.3 ± 3.8 %,No signs of acute intoxication
CC(C)C[C@@H]1NC2(C(=O)NC(=O)NC2=O)[C@]2(c3ccccc3)[C@@H](c3ccccc3)[C@]12c1ccccc1 [Compound 4f],not different from the control,2.1 ± 1.3 %,2.9 ± 0.1 %,90.9 ± 1.6%,17 ± 4 µM,6 ± 2 µM,1.7,one,–,4.1 ± 0.5 %,–
CCCCCC[C@@H]1NC2(C(=O)NC(=O)NC2=O)[C@]2(c3ccccc3)[C@@H](c3ccccc3)[C@]12c1ccccc1 [Compound 4g],–,6.3 ± 2.8 %,38.5 ± 1.9 %,17.1% and 17.1 ± 3.5 %,19 ± 2 µM,10 ± 2 µM,1.4,–,–,38.0 ± 6.9 %,–
CSCC[C@@H]1NC2(C(=O)NC(=O)NC2=O)[C@]2(c3ccccc3)[C@@H](c3ccccc3)[C@]12c1ccccc1 [Compound 4h],–,1.9 ± 0.2 %,9.8 ± 1.0 %,72.2% and 72.2 ± 0.4 %,20 ± 4 µM,10 ± 2 µM,2.2,–,–,15.3 ± 0.5 %,–
O=C1NC(=O)C2(N[C@@H](c3ccccc3)[C@@]3(c4ccccc4)[C@H](c4ccccc4)[C@@]23c2ccccc2)C(=O)N1 [Compound 4i],–,2.1 ± 0.9 %,12.6 ± 0.8 %,67.9% and 67.9 ± 2.4 %,26 ± 4 µM,8 ± 4 µM,2.9,three,"persistent, rounded, dense agglomerates of white or yellowish-white foreign material",17.3 ± 1.4 %,–
